Experiments:
[1] = test system: p-glycoprotein (ABCB1 protein); conditions: cited from earlier work; for substrate of p-glycoprotein: from cited literature; for uptake / penetration into the brain of mice dependent on ABCB1 protein: mice with abcb1ab knockout mutation, cited literature
[2] = test system: p-glycoprotein (abcb1a and abcb1b); assay: Drug concentrations in cerebrum and plasma of abcb1ab (-/-) mice compared to wild-type controls after 11 day subcutaneous administration; conditions: for differences in plasma levels between abcb1ab (-/-) mutant and wildtype littermates: 11 day continuous sub-cutaneous administration; for fold higher concentration in the brain of abcb1ab (-/-) mutant compared to wildtype animals (cerebrum/plasma ratio): 11 day continuous sub-cutaneous administration via osmotic pumps, male mice; for intracerebral concentration regulated by p-glycoprotein: administration for 11 days, mice lacking abcb1a and abcb1b
Experimental: Venlafaxine and o-desmethylvenlafaxine (d-venlafaxine) was obtained from Wyeth-Pharma GmbH (Münster, Germany). […] Protriptyline was purchased from RBI (Massachusetts, USA). All other chemicals were obtained in the purest grade available from Merck (Darmstadt, Germany).
Male abcb1ab(−/−) mice and FVB/N wildtype mice were housed individually and maintained on a 12:12 h light/dark cycle (lights on at 07:00), with food and water ad libitum. Abcb1ab double knockout mice, originally created by A. Schinkel by sequential gene targeting in 129/Ola E14 embryonic stem cells^28 and backcrossed seven times (N7) to FVB/N from the C57BL/6×129 chimera, and FVB/N wildtype mice were received from Taconic (Germantown, USA; FVB/Tac-[KO]Pgy2 N7). A homozygous colony is maintained at the Max-Planck Institute of Psychiatry on the N7 FVB/N background through intercrossing of homozygous mice.
Experimental and extraction procedures were performed as described before^12,26. […] After 11 days, the mice were anesthetized and sacrificed. The dissected organs were homogenized and a liquid-liquid extraction procedure has been carried out with n-hexan/isoamylalcohol (Table 3) in the first step and phosphoric acid in the second.
HPLC measurements were performed as described before^12,26. A Beckman gradient pump, autoinjector, UV detector and a Merck fluorescence detector, were used for the high-performance liquid chromatography analysis. Separations were made on a reversed phase Luna 5μ C18(2) 250×4.6 mm column (Phenomenex, Torrance, USA), 60° C., mobile phase flow 1 ml/min. A mobile phase gradient with acetonitrile was used for the chromatography analysis (Table 3). The substances were determined by UV absorption and fluorescence at the described wavelength (Table 3).
Statistical analysis was carried out the statistic software SPSS 10.0 for windows (Chicago, Ill.). Significance was tested by one-factorial multivariate analyses of variance (MANOVAs). […] As a nominal level of significance α=0.05 was accepted and corrected (reduced according to the Bonferroni procedure) for all a posteriori tests (univariate F-tests) in order to keep the type I error less than or equal to 0.05.

[3] = Plasma concentration of antidepressant drugs in depressed patients according to rs2235015 genotype; type: in vivo, human; conditions: weeks 4-6 of treatment; rs2235015 GG homozygotes; SEM=51.6
Experimental: All patients were treated with antidepressant drugs within a few days of admission. The type antidepressant medication was not influence by the participation in the study, but chosen freely by the responsible psychiatrist. For all patients plasma concentration of antidepressant medication was monitored to assure clinically efficient drug levels.
Plasma citalopram, mirtazapine, and paroxetine were extracted with a liquid-liquid extraction procedure and than measured after HPLC with UV absorption and fluorescence.
We used a reversed phase Luna 5μ C18(2) 250×4.6 mm column (Phenomenex, Torrance, USA), 60° C., mobile phase flow 1 ml/min. […] The extraction recovery was >90%, and the intra and inter day variation coefficient was <10%.
To detect any genotype dependent differences in antidepressant dose or plasma level, we used a one-way ANOVA with the genotype of rs2235015 as factor.

SMILES | substrate of p-glycoprotein [1] | uptake / penetration into the brain of mice dependent on ABCB1 protein [1] | also measured
CNCCC(Oc1ccc(C(F)(F)F)cc1)c1ccccc1 (stereo not shown) [fluoxetine] | not substrate of p-glycoprotein | – | –
CN(C)CC(c1ccc(O)cc1)C1(O)CCCCC1 (stereo not drawn) [d-venlafaxine, o-desmethylvenlafaxine] | – | – | differences in plasma levels between abcb1ab (-/-) mutant and wildtype littermates [2]: no differences; fold higher concentration in the brain of abcb1ab (-/-) mutant compared to wildtype animals (cerebrum/plasma ratio) [2]: 4.1 fold; intracerebral concentration regulated by p-glycoprotein [2]: regulated by p-glycoprotein
CN(C)CCCC1(c2ccc(F)cc2)OCc2cc(C#N)ccc21 (stereo not shown) [citalopram] | – | involved in the uptake | –
CN1CCN2c3ncccc3Cc3ccccc3C2C1 (stereo not shown) [mirtazapine] | – | – | differences in cerebrum/plasma ratios between abcb1ab (-/-) mutant and wildtype ([2]; mouse, in vivo): no significant differences
CN(C)CCC=C1c2ccccc2COc2ccccc21 [doxepin] | – | enhancement of penetration | –
Fc1ccc([C@@H]2CCNC[C@H]2COc2ccc3c(c2)OCO3)cc1 [paroxetine] | identified as a substrate of p-glycoprotein | enhancement of penetration | –
CC(CN(C)C)CN1c2ccccc2CCc2ccccc21 (stereo not shown) [trimipramine] | – | involved in the uptake | –
CNCCC=C1c2ccccc2CCc2ccccc21 [nortriptyline] | substrate of p-glycoprotein | – | –
COc1ccc(C(CN(C)C)C2(O)CCCCC2)cc1 (stereo not shown) [venlafaxine] | – | enhancement of penetration | differences in plasma levels between abcb1ab (-/-) mutant and wildtype littermates [2]: no differences; fold higher concentration in the brain of abcb1ab (-/-) mutant compared to wildtype animals (cerebrum/plasma ratio) [2]: 1.7 fold; intracerebral concentration regulated by p-glycoprotein [2]: regulated by p-glycoprotein; mean plasma level of administered antidepressant [3]: 356.5 ng/mL

Reference: patent publication US8030033B2, “Polymorphisms in ABCB1 associated with a lack of clinical response to medicaments” (priority 2004, dated 2011)
